Source: patent US12084418B2, “Small molecule inhibitors of G(alpha)i2 protein and uses thereof” (Clark Atlanta University, Inc., priority 2020, dated 2024)
“Also recorded” adds a separate entry of the source.

Columns and labels:
PC3 cells [1] = test: Transwell migration assay in PC3 cells; assay type: cell-based, human
Protocol: (§1) Human prostate cancer cell lines (DU145 and PC3) were obtained from American Type Culture Collection (ATCC) (Rockville, MD). DU145 and PC3 are androgen independent cell lines, derived from brain and bone metastatic sites, respectively. They were maintained in Minimum Essential Medium, supplemented with 5% FBS, in a 5% CO2 environment at 37° C. E006AA cells are derived from localized prostate cancer in a patient. These cells were maintained in Dulbecco's Modified Eagle Medium, supplemented with 5% FBS, in a 5% CO2 environment at 37° C.
For biological assays, the compounds were dissolved in DMSO at a starting concentration of 0.05 mM (compound 12) and 0.1 mM (compounds 9a-b, 13 and 14) and then diluted in culture media to the final concentrations used for the assays.
(§2) In vitro cell migration and invasion assays were conducted using 24-well transwell inserts (8 μm). The transwell inserts were coated with […] of rat tail collagen for migration assays, and with 50 μl of a 1:4 Matrigel/Coating buffer solution for invasion assays. Cells were suspended at the appropriate density in appropriate media and treated with the inhibitors, at specific concentrations. For migration assays, EGF was used as a chemoattractant (10 ng/ml) for PC3, DU145, E006AA and SKOV3 cells; 10% FBS was used for MCF7 cells. The plates were incubated at 37° C. for 5 hours (DU145, PC3 and SKOV3), 24 hours (E006AA) or 48 hours (MCF7) for migration assays, and 48 hours for invasion assays. After fixation, the cells were stained with 3 ng/ml of DAPI and images of five non-overlapping fields were captured using Axiovert 200M, Carl Zeiss (Thornwood, NY) microscope. The number of stained nuclei were determined with automatic counting using image analysis software (ZEN 2012; Carl Zeiss). Results were expressed as migration or invasion index defined as: the average number of cells per field for test substance/the average number of cells per field for the medium control.

PC3 cells [2] = test: Cell viability assay (MTS); assay type: cell-based, human; conditions: compound 10 μM, 24 hours
Protocol: FIG. 3C is a graph depicting a viability study of PC3 cells treated for 24 hours with inhibitor compounds 9b, 13 and 14, at 10 μM. MTS assays were conducted for 4 hours and the results were expressed as % of viable treated cells against the control cells. Each bar represents mean±SEM (n=3).
Cell viability assays were performed using CellTiter 96® AQueous One Solution Cell Proliferation Assay (MTS) from Promega, according to the manufacture's protocol. Briefly, 5.0×10^4 cells/well were plated in a 96 well plates and incubated in a 5% CO2 environment at 37° C. overnight. After 24 hours the medium was replaced with fresh medium, containing several compounds at the appropriate concentrations. Diluted DMSO was used as a control. MTS assays were performed after 24 hours and the absorbance read at 490 nm, using a spectrophotometer.

PC3 cells [3] = test: Transwell migration assay in PC3 cells; assay type: cell-based, human; conditions: absence of EGF stimulus
PC3 cells [4] = test: Cell viability assay (MTS); assay type: cell-based, human; conditions: 24 hours
DU145 cells = test: Transwell migration assay in DU145 cells; assay type: cell-based, human; conditions: compound 10 μM
Protocol: as §1
as §2, with “The plates were incubated at 37° C. for 5 hours (DU145, PC3 and SKOV3), 24 hours (E006AA) or 48 hours (MCF7) for migration assays, and 48 hours for invasion assays. After fixation, the cells were stained with 3 ng/ml of DAPI and images of five non-overlapping fields were captured using Axiovert 200M, Carl Zeiss (Thornwood, NY) microscope.” left out

E006AA cells = test: Transwell migration assay in E006AA cells; assay type: cell-based, human; conditions: compound 10 μM
Protocol: as §1
as §2, with “The plates were incubated at 37° C. for 5 hours (DU145, PC3 and SKOV3), 24 hours (E006AA) or 48 hours (MCF7) for migration assays, and 48 hours for invasion assays. After fixation, the cells were stained with 3 ng/ml of DAPI and images of five non-overlapping fields were captured using Axiovert 200M, Carl Zeiss (Thornwood, NY) microscope.” left out

Gαi2 = biological target: T1, Gαi2 (Homo sapiens, UniProt P04899); test: Immunoprecipitation of active Gαi and Western blot with anti-Gαi2 antibody in PC3 cells; assay type: cell-based; conditions: for activation of Gαi2 (conversion from GDP- to GTP-state): stimulus not given
T1 construct: endogenous in cells; host or cells: PC3 cells
T1 sequence (P04899 whole entry): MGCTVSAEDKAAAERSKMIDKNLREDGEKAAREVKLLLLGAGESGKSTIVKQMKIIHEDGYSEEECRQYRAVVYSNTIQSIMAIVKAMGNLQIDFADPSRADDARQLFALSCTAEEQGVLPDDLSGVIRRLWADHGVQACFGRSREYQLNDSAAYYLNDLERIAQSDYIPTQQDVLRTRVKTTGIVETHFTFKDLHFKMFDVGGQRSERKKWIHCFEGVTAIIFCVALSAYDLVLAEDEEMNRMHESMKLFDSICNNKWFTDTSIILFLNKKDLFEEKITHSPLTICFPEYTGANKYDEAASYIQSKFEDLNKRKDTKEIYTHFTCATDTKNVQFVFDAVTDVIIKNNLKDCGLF
Protocol: PC3 cells (3×10^6 cell/dish) were incubated with or without inhibitor compound 14 (10 μM) for 30 minutes and then treated with EGF (10 ng/ml) or oxytocin (200 nmol/L) for additional 30 minutes. Cells were lysed in ice-cold cell lysis buffer (Cell Signaling Technology) and snap-frozen in liquid nitrogen. Total cell lysates, containing approximately 1000 μg of proteins, were used for immunoprecipitation. The lysates were incubated with 1 μg of anti-active Gαi antibody, overnight at 4° C. Immunocomplexes were collected by centrifugation after incubation with protein A/G-Sepharose beads for 48 h (Santa Cruz Biotechnology) and were analyzed by Western blot analysis with specific anti-Gαi2 antibody (Abcam).
Western blot analyses were performed. Briefly, protein samples (30-35 μg proteins) were separated on 10% SDS-PAGE gels and transferred to polyvinylidene difluoride (PVDF) membranes (Millipore Corp., Bedford, Massachusetts). After blocking, the membranes were incubated with several primary antibodies, at appropriate dilutions (1:500 for Giα2; 1:3000 for α-tubulin) overnight at 4° C. After washing, the blots were incubated with appropriate secondary antibodies and developed in ECL mixture, using Syngene PXi Imaging System, according to the manufacture's manual. α-tubulin was used as loading control.

PC3 cells [5] = test: Transwell (Matrigel) invasion assay in PC3 cells; assay type: cell-based, human; conditions: compound 10 μM, 48 hours
Protocol: as §2

DU145-Gαi2-Q205L cells = test: Transwell migration assay in DU145 cells overexpressing constitutively active Gαi2 (Gαi2-Q205L); assay type: cell-based, human
Protocol: DU145 cells were seeded in 6-well plates at a density of 2.0×10^5 cells per well and transfected with pcDNA3.1-EV and pcDNA3.1-Gαi2-Q205L, using ViaFect™ transfection reagent, according to the manufacturer's protocol. Briefly, media with no antibiotics (200 μl/well) containing 2 μg of plasmids DNA were mixed with the transfection reagent (6 μl/well) and, after 20 minutes, the mixtures were added drop by drop on the cells and the cells were cultured for 48 hours. Then the cells were harvested and used for several assays.
as §2

MCF7 cells = test: Transwell migration assay in MCF7 cells; assay type: cell-based, human; conditions: compound 10 μM, 10% FBS, 48 hours
Protocol: (§3) Human breast adenocarcinoma cell line MCF7 and human ovarian adenocarcinoma cell line SKOV3 were obtained from American Type Culture Collection (ATCC) (Rockville, MD) and maintained in Dulbecco's Modified Eagle Medium, supplemented with 5% FBS, in a 5% CO2 environment at 37° C.
as §2, with “After fixation, the cells were stained with 3 ng/ml of DAPI and images of five non-overlapping fields were captured using Axiovert 200M, Carl Zeiss (Thornwood, NY) microscope.” left out

SKOV3 cells = test: Transwell migration assay in SKOV3 cells; assay type: cell-based, human; conditions: compound 10 μM, EGF 10 ng/ml, 5 hours
Protocol: as §3
as §2, with “After fixation, the cells were stained with 3 ng/ml of DAPI and images of five non-overlapping fields were captured using Axiovert 200M, Carl Zeiss (Thornwood, NY) microscope.” left out

[6] = compound 10 μM, EGF 10 ng/ml, 5 hours
[7] = compound 50 μM, in presence of EGF
[8] = compound 100 μM, in presence of EGF

## C/C(=N\c1ccc(O)cc1)c1sc2ccccc2c1O [Compound 12, (E)-2-(1-((4-hydroxyphenyl)imino)ethyl)benzo[b]thiophen-3-ol, reference compound]
PC3 cells [1]; [6]
  migratory capability of PC3 cells (migration index): had no effect on the migration
PC3 cells [1]; [7]
  migratory capability of PC3 cells (migration index): caused a reduction in the migratory capability
PC3 cells [1]; [8]
  migratory capability of PC3 cells (migration index): caused a reduction in the migratory capability
PC3 cells [2]
  cell viability: had no effect on cell viability
PC3 cells [3]; compound 50 μM
  migratory capability of PC3 cells (migration index): caused a reduction in the migratory capability
PC3 cells [3]; compound 100 μM
  migratory capability of PC3 cells (migration index): caused a reduction in the migratory capability
PC3 cells [4]; compound 50 μM
  cell viability: cytotoxic
PC3 cells [4]; compound 100 μM
  cell viability: cytotoxic

## C/C(=N\c1ccc(O)cc1)c1cc2ccccc2s1 [Compound 13, (E)-4-((1-(benzo[b]thiophen-2-yl)ethylidene)amino)phenol]
PC3 cells [1]; [6]
  migratory capability of PC3 cells (migration index): significantly decreased EGF-induced migratory capability; also recorded: significantly reduced the migratory capability
PC3 cells [1]; [7]
  migratory capability of PC3 cells (migration index): reduced the migratory capability
PC3 cells [1]; [8]
  migratory capability of PC3 cells (migration index): reduced the migratory capability
PC3 cells [2]
  cell viability: had no effect on cell viability; also recorded: did not affect cell viability
DU145 cells
  EGF-induced migration of DU145 cells: reduced the EGF-induced migration
E006AA cells
  EGF-induced migration of E006AA cells: reduced the EGF-induced migration
Gαi2
  activation of Gαi2 (conversion from GDP- to GTP-state): impaired activation of Gαi2
PC3 cells [4]; compound 50 μM
  cell viability: cytotoxic
PC3 cells [4]; compound 100 μM
  cell viability: cytotoxic

## C/C(=N\c1ccc(O)cc1)c1cc2ccccc2n1C [Compound 14, (E)-4-((1-(1-methyl-1H-indol-2-yl)ethylidene)amino)phenol]
PC3 cells [1]; [6]
  migratory capability of PC3 cells (migration index): significantly decreased EGF-induced migratory capability; also recorded: significantly reduced the migratory capability
PC3 cells [1]; [7]
  migratory capability of PC3 cells (migration index): reduced the migratory capability
PC3 cells [1]; [8]
  migratory capability of PC3 cells (migration index): reduced the migratory capability
PC3 cells [5]; in response to EGF 10 ng/ml
  invasive capability of PC3 cells (invasion index): significantly reduced; also recorded: inhibited
PC3 cells [5]; in response to FBS (5%)
  invasive capability of PC3 cells (invasion index): significantly reduced
PC3 cells [2]
  cell viability: had no effect on cell viability; also recorded: did not affect cell viability
DU145 cells
  EGF-induced migration of DU145 cells: reduced the EGF-induced migration
E006AA cells
  EGF-induced migration of E006AA cells: reduced the EGF-induced migration
Gαi2; PC3 cells, OXT 200 nmol/L 30 minutes, compound 14 at 10 μM
  levels of active Gαi2 after stimulation with OXT: the levels of active Gαi2 were reduced
Gαi2
  activation of Gαi2 (conversion from GDP- to GTP-state): reduced activation of Gαi2; also recorded: impaired activation of Gαi2
DU145-Gαi2-Q205L cells; compound 10 μM, EGF 10 ng/ml
  EGF-stimulated cell migration of DU145-Gαi2-Q205L cells: attenuation
DU145-Gαi2-Q205L cells; compound 10 μM, basal
  basal cell migration of DU145-Gαi2-Q205L cells: attenuation
DU145-Gαi2-Q205L cells; stimulus and concentration not stated at the place (FIG. 5B)
  migration of DU145-Gαi2-Q205L cells: significantly reduced migration
MCF7 cells
  migration of MCF7 cells: impaired the migratory capability; also recorded: significantly reduced migration
SKOV3 cells
  migration of SKOV3 cells: impaired the migratory capability; also recorded: significantly reduced migration
PC3 cells [4]; compound 50 μM
  cell viability: cytotoxic
PC3 cells [4]; compound 100 μM
  cell viability: cytotoxic
